Values joined by “and” are separate entries in the source; they are usually repeats but may differ in a detail not shown here. Equal values may be shown once. Read-outs that look alike come from different tables or passages of the source.
Assays:
[1] = tested on: Chinese hamster lung fibroblast cell line VC8 (BRCA2−/−); assay: In vitro cell proliferation inhibition (MTT), VC8 cells; format: cell-based; details: read-out: VC8 cell IC50
wild type cell line V79 = assay: In vitro cell proliferation inhibition (MTT), V79 cells; format: cell-based, Chinese hamster; details: Cricetulus griseus, read-out: V79 cell IC50
[2] = compound during phase II clinical trials; cited from earlier work
PARP1 = PARP1 (Homo sapiens, UniProt P09874); assay: PARP1 enzymatic inhibition at molecular levels (ELISA); details: ELISA IC50, PARP1 enzyme, molecular level
Chain of PARP1 (P09874 whole entry): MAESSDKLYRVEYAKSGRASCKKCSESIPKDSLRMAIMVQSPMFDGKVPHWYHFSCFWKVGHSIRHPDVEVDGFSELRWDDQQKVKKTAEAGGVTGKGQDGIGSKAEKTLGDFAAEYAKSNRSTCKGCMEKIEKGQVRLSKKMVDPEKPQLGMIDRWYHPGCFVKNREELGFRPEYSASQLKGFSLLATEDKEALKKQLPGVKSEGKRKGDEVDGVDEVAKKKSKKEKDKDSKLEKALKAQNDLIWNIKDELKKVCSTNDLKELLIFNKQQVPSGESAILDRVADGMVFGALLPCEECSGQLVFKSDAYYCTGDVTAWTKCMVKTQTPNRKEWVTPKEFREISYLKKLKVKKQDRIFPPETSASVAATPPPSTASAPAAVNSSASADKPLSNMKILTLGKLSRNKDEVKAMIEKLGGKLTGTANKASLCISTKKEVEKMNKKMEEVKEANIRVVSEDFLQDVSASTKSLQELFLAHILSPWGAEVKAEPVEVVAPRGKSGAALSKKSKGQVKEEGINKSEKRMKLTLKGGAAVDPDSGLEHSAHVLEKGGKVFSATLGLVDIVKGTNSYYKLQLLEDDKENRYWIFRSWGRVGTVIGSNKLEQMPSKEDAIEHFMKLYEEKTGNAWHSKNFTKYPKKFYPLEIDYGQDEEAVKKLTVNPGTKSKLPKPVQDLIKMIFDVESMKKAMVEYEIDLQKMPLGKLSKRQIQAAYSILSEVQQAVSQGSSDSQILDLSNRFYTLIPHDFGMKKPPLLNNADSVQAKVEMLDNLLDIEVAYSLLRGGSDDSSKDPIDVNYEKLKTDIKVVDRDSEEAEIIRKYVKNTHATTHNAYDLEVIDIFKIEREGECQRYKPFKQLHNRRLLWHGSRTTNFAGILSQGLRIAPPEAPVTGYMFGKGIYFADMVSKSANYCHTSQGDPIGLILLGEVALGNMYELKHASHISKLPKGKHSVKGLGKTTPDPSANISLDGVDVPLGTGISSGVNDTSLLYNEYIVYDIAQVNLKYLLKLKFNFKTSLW

[3] = Cricetulus griseus, V-C8, 72 h, MTT, 72 h, VC8 (BRCA2−/−)

| Compound | IC50 [1, 3] [nM] | IC50 ([1]; MTT, 72 h, VC8 (BRCA2−/−)) [nM] | IC50 (wild type cell line V79; MTT, 72 h, wild type V79) [nM] | IC50 ([1]; Cricetulus griseus, V-C8, 72 h) [nM] | IC50 (wild type cell line V79; V79, 72 h) [nM] | oral bioavailability of rats [2] [%] | IC50 (PARP1) |
| --- | --- | --- | --- | --- | --- | --- | --- |
| NC(=O)c1cc(F)cc2cc(-c3ccc(CN4CCCC4)cc3)oc12 [5f, 5-fluoro-2-{4-[(pyrrolidin-1-yl)methyl]phenyl}benzofuran-7-carboxamide] | 3360 | 2620 | > 10000 | – | – | – | – |
| O=C(c1cc(Cc2n[nH]c(=O)c3ccccc23)ccc1F)N1CCN(C(=O)C2CC2)CC1 [AZD2281, Olaparib, reference compound] | – | – | – | 820 ± 330 | > 10000 | 11.1 | – |
| CN(C)Cc1ccc(-c2cc3cc(F)cc(C(N)=O)c3o2)cc1 [compound 5a, 5-fluoro-2-{4-[(dimethylamino)methyl]phenyl}benzofuran-7-carboxamide] | 750 ± 100 | – | > 10000 | – | – | – | 11.8 ± 8.9 nM |
| CNCc1ccc(-c2cc3cc(F)cc(C(N)=O)c3o2)cn1 [compound 5c, 5-fluoro-2-{6-[(methylamino)methyl]-3-pyridyl}benzofuran-7-carboxamide] | – | – | > 10000 | – | – | – | 37 nM and 34.2 nM and 72 nM |
| CNCc1ccc(-c2cc3cc(F)cc(C(N)=O)c3o2)nc1 [compound 5d, 5-fluoro-2-{5-[(methylamino)methyl]-2-pyridyl}benzofuran-7-carboxamide] | 3270 | 1740 | > 10000 | – | – | – | 23 nM and 27.9 nM and 58 nM |
| CNCc1ccc(-c2cc3cc(F)cc(C(N)=O)c3o2)cc1F [compound 5e, 5-fluoro-2-{4-[(methylamino)methyl]-3-fluorophenyl}benzofuran-7-carboxamide] | 2080 | 1510 | > 10000 | – | – | – | 14.8 nM and 20.8 nM and 74 nM |
| CN1CCN(Cc2ccc(-c3cc4cc(F)cc(C(N)=O)c4o3)cc2)CC1 [compound 5g, 5-fluoro-2-{4-[(4-methyl-1-piperazino)methyl]phenyl}benzofuran-7-carboxamide] | 2080 | 2140 | > 10000 | – | – | – | 83 nM and 105 nM and 187 nM |
| NC(=O)c1cc(F)cc2cc(-c3ccc(CN4CCCCC4)cc3)oc12 [compound 5h, 5-fluoro-2-{4-[(piperidin-1-yl)methyl]phenyl}benzofuran-7-carboxamide] | 2600 | 2010 | > 10000 | – | – | – | – |
| CN1CCCN(Cc2ccc(-c3cc4cc(F)cc(C(N)=O)c4o3)cc2)CC1 [compound 5i, 5-fluoro-2-{4-[(4-methyl-1-homopiperazino)methyl]phenyl}benzofuran-7-carboxamide] | – | – | > 10000 | – | – | – | 104 nM and 101 nM and 207 nM |
| NC(=O)c1cc(F)cc2cc(-c3ccc(CN4CCOCC4)cc3)oc12 [compound 5j, 5-fluoro-2-{4-[(1-morpholinyl)methyl]phenyl}benzofuran-7-carboxamide] | – | – | > 10000 | – | – | – | – |
| NC(=O)c1cc(F)cc2cc(-c3ccc(CN4CCSCC4)cc3)oc12 [compound 5k, 5-fluoro-2-{4-[(thiomorpholino)methyl]phenyl}benzofuran-7-carboxamide] | > 10000 | – | > 10000 | – | – | – | 1060 nM and 2060 nM and 1520 nM |
| NC(=O)c1cc(F)cc2cc(-c3ccc(CNC4CCNCC4)cc3)oc12 [compound 5l, 5-fluoro-2-{4-[(4-piperidyl)aminomethyl]phenyl}-benzofuran-7-carboxamide] | 8310 | 8220 | > 10000 | – | – | – | 182 nM and 107 nM and 393 nM |
| NC(=O)c1cc(F)cc2cc(-c3ccc(CN[C@@H]4CCOC4)cc3)oc12 [compound 5m, (R)-5-fluoro-2-{4-[(3-tetrahydrofurylamino)methyl]phenyl}benzofuran-7-carboxamide] | 1150 | 1180 | > 10000 | – | – | – | 49 nM and 9.5 nM and 17 nM |
| NC(=O)c1cc(F)cc2cc(-c3ccc(CNC4CC4)cc3)oc12 [compound 5n, 5-fluoro-2-[4-(cyclopropylaminomethyl)phenyl]benzofuran-7-carboxamide] | – | – | > 10000 | – | – | – | 18 nM and 31 nM and 73 nM |
| CC(C)NCc1ccc(-c2cc3cc(F)cc(C(N)=O)c3o2)cc1 [compound 5o, 5-fluoro-2-[4-(isopropylaminomethyl)phenyl]benzofuran-7-carboxamide] | 1090 | 941 | > 10000 | – | – | – | 32 nM and 18.8 nM and 25 nM |
| CNCc1ccc(-c2cc3cc(F)cc(C(N)=O)c3o2)c(F)c1 [compound 5p, 5-fluoro-2-{4-[(methylamino)methyl]-2-fluorophenyl}benzofuran-7-carboxamide] | 1360 | 1620 | > 10000 | – | – | – | 22 nM and 8.9 nM and 40 nM |
| CN(C)Cc1ccc(-c2oc3c(C(N)=O)cc(F)cc3c2Cl)cc1 [compound 7a, 3-chloro-5-fluoro-2-{4-[(dimethylamino)methyl]phenyl}benzofuran-7-carboxamide] | – | – | – | – | – | – | 9250 nM |
